This is an account of results in patent US20230071763A1, “AURISTATIN-RELATED COMPOUNDS, CONJUGATED AURISTATIN-RELATED COMPOUNDS, AND METHODS OF USE THEREOF” (CYTOMX THERAPEUTICS, INC., priority 2020, published 2023).

The term EC50 denotes the concentration needed to bring the measured effect to its halfway point. One may read the Kd as the equilibrium constant for the complex coming apart.

One data set deals with T1, human CES-1C (Homo sapiens, UniProt P23141).
T1 sequence (P23141 18-566 isoform P23141-3 limits assumed): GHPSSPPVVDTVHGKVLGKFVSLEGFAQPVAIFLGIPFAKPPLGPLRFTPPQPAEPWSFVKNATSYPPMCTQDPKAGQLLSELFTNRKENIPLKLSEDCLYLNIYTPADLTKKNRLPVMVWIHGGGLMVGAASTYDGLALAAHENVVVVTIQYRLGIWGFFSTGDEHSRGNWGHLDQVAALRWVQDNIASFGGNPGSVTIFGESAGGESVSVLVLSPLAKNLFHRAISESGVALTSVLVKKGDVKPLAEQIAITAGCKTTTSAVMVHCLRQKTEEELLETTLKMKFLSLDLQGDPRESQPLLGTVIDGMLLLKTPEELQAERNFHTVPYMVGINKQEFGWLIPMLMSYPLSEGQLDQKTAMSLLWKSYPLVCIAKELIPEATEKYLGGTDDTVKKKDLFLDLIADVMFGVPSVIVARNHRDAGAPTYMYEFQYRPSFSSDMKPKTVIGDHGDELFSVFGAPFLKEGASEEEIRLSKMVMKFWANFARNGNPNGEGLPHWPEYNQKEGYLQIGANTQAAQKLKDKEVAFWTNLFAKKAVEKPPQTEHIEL
Nature of the data set: Stability to carboxylesterase, human CES-1C. The note with it: 37° C., in 48 hrs. Type of data set: in vitro ADME. The protocol:
(§1) In a further exemplary study, the stability of the substrates were determined in the presence of […] different carboxylesterases (human or mouse CES-1 and CES-1C). In this study, the enzymes were activated prior to substrate introduction and then incubated with the substrate at 37° C. over a 48 h time period.

The target in the next data set is T2, mouse CES-1C (Mus musculus, UniProt P23953).
T2 sequence (P23953 19-554): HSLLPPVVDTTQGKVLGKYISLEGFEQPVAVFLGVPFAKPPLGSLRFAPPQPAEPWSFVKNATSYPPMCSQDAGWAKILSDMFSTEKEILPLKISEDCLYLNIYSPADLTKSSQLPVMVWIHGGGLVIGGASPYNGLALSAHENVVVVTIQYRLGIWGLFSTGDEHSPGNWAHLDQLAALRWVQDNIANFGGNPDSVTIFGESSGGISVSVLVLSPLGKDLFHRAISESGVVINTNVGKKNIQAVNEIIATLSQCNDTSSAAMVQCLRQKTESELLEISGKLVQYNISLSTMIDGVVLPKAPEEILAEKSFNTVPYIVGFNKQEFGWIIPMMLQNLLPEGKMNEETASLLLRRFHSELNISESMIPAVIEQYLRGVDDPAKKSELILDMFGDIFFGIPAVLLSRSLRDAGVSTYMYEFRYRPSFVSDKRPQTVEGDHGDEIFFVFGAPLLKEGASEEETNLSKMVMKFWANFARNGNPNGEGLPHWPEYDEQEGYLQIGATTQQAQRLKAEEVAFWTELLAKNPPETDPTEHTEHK
The data set can be described thus: Stability to carboxylesterase, mouse CES-1C. Type of data set: in vitro ADME. The conditions noted are these: 37° C., in 48 hrs. The protocol:
as §1

For another data set, the system named is SW780 cells. The data set can be described thus: In vitro cytotoxicity (Presto Blue), SW780. The note with it: 5 days treatment, percent survival. Type of data set: cell-based. The protocol: (§2) In this assay, the test cells were plated and grown to an appropriate cell density (e.g., 1500 cells/well (50 μL per well) for SW780 cells). The cells were treated with the drug (MMATH or MMAE (monomethylauristatin E)) at concentrations ranging from 10 μM to 10^−4 nM in triplicate for 5 days. On the day 6 endpoint, the cells were incubated with 20 μL of Presto Blue @ 37 C for 2 hr and the signal was read on a Biotek synergy H4 plate reader. After media background was subtracted, the percent survival was calculated and plotted to determine the EC50, as shown in the exemplary results of Table 1.

For another data set, the system named is SKOV3. Nature of the data set: In vitro cytotoxicity (Presto Blue), SKOV3. Type of data set: cell-based. The conditions noted are these: 5 days treatment, percent survival. The protocol:
as §2

A further data set deals with HCC1954. The data set can be described thus: In vitro cytotoxicity (Presto Blue), HCC1954. Type of data set: cell-based. The conditions noted are these: 5 days treatment, percent survival. The protocol: as §2
Another data set deals with PC3. Nature of the data set: In vitro cytotoxicity (Presto Blue), PC3. Type of data set: cell-based. The conditions noted are these: 5 days treatment, percent survival. The protocol:
as §2

For the next data set, the target named is tubulin. Nature of the data set: Binding to tubulin.

Turning to `CC[C@H](C)C([C@@H](CC(=O)N1CCC[C@H]1[C@H](OC)[C@@H](C)C(=O)N[C@H](C)[C@@H](O)c1ccccc1)OC)N(C)C(=O)[C@@H](NC(=O)[C@@H](NC)C(C)C)C(C)C` (some centres unmarked) [Cys-vc-MMAE], on human CES-1C, the “cleavage by human CES-1C” value was “completely cleaved”. Besides, the “cleavage by mouse CES-1C” value at mouse CES-1C is reported as “completely cleaved”.
`CCC(C)C(C(CC(=O)N1CCCC1C(OC)C(C)C(=O)NC(CO)Cc1cccs1)OC)N(C)C(=O)C(NC(=O)C(NC)C(C)C)C(C)C` (centres unmarked) [MMATH]: the half-maximal effective concentration (EC50) in the data set on SW780 cells (Homo sapiens, SW780, 120 h, first SW780 column) was determined as 0.38 nM; in the data set with SW780 cells (Homo sapiens, SW780, 120 h, second SW780 column) it was 0.26 nM; with SKOV3 (Homo sapiens, SK-OV-3, 120 h) it was 0.2 nM; with HCC1954 (Homo sapiens, HCC1954, 120 h), 0.03 nM; in the data set with PC3 (Homo sapiens, PC-3, 120 h) it was 0.24 nM. At tubulin, this molecule had a Kd of 204 nM.
Regarding `CC[C@H](C)[C@@H]([C@@H](CC(=O)N1CCC[C@H]1[C@H](OC)[C@@H](C)C(=O)N[C@H](C)[C@@H](O)c1ccccc1)OC)N(C)C(=O)[C@@H](NC(=O)[C@@H](NC)C(C)C)C(C)C` [MMAE, monomethylauristatin E], the EC50 stood at 0.31 nM in the data set on SW780 cells (first SW780 column); 0.22 nM with SW780 cells (second SW780 column); 0.19 nM in the data set with SKOV3; 0.03 nM with HCC1954; 0.24 nM in the data set with PC3. The Kd on tubulin was 69.9 nM.
